Measured values published in US11926614B2, “1,2,4-triazole derivatives as tankyrase inhibitors” (priority 2018, dated 2024).
Read-outs that look alike come from different tables or passages of the source.

How the values were obtained:
[1] = biological target: TNKS2 (Homo sapiens (Human), UniProt Q9H2K2); assay: Biochemical IC50 TNKS2; settings: read-out: Biochemical IC50 TNKS2
Text: (§1) XLfit (idbs) was used to determine the IC50-values in inhibition experiments. The following formula was chosen to fit the data points (Langmuir Binding Isotherm): fit=((A+(B*x))+4(C−B)*(1−exp((−1*D)*x)))/D)), res=(y−fit)

[2] = test system: HEK293; assay: Cellular IC50 HEK293; format: cell-based
Text: as §1

[3] = Homo sapiens, HEK293, HEK293; read-out: Cellular IC50 HEK293
[4] = Homo sapiens, HEK293; read-out: Cellular IC50 HEK293
[5] = Homo sapiens, HEK293, read-out: Cellular IC50 HEK293

TNKS2, sequence (Q9H2K2 whole entry): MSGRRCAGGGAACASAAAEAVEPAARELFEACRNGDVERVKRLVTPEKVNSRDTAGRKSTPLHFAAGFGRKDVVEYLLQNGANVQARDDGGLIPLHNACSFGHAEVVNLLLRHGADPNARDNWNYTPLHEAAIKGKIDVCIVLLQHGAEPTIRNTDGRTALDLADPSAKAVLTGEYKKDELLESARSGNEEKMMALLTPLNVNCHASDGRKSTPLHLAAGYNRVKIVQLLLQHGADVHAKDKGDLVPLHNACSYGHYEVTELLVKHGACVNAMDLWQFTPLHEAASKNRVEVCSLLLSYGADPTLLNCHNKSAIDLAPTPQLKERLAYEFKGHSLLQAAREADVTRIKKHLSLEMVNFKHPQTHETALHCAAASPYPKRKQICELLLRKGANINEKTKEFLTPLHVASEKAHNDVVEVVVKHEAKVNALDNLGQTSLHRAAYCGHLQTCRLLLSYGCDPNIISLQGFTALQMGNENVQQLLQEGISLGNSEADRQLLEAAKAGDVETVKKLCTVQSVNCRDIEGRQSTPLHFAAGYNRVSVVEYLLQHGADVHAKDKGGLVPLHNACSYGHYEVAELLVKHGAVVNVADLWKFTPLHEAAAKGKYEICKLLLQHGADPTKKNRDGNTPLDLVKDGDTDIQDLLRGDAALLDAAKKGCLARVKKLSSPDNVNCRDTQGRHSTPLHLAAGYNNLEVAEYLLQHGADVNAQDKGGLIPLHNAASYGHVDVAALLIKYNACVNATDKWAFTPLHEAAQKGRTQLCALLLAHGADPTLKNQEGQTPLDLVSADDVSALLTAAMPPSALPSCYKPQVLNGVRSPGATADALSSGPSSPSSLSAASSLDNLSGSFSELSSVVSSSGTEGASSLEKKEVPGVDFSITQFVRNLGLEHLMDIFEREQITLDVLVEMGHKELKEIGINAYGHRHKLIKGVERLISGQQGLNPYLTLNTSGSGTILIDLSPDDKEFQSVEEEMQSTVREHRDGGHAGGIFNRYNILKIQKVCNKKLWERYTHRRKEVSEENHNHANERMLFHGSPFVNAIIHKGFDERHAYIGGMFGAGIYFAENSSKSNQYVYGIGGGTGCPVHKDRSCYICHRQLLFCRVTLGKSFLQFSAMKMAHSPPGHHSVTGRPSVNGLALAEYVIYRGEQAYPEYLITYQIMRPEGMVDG

Compound | IC50 [1] | IC50 [2, 3] | IC50 [2, 4] | IC50 [2, 5]
O=C(NC12CC(c3nnc(-c4ccncn4)n3-c3ccccc3Cl)(C1)C2)c1ccnc2cccnc12 [Example 21, N-(3-(4-(2-chlorophenyl)-5-(pyrimidin-4-yl)-4H-1,2,4-triazol-3-yl)bicyclo[1.1.1]pentan-1-yl)-1,5-naphthyridine-4-carboxamide] | 1.8 nM | 0.5 nM | – | –
CCOc1ccc(-c2nnc(C34CC(NC(=O)c5ccnc6cccnc56)(C3)C4)n2-c2ccccn2)nc1 [Example 122, N-(3-(5-(5-ethoxypyridin-2-yl)-4-(pyridin-2-yl)-4H-1,2,4-triazol-3-yl)bicyclo[1.1.1]pentan-1-yl)-1,5-naphthyridine-4-carboxamide] | 13 nM | – | 20 nM | –
CCOc1ccc(-c2nnc([C@H]3C[C@H](NC(=O)c4ccnc5cc(F)cnc45)C3)n2-c2ccccc2F)nc1 [Example 57, N-((1S,3r)-3-(5-(5-ethoxypyridin-2-yl)-4-(2-fluorophenyl)-4H-1,2,4-triazol-3-yl)cyclobutyl)-7-fluoro-1,5-naphthyridine-4-carboxamide] | 2 nM | – | 0.17 nM | –
O=C(N[C@H]1C[C@H](c2nnc(-c3ccc(OC(F)F)cn3)n2-c2ccccc2F)C1)c1cc(F)cc2nccnc12 [Example 186, N-((1S,3r)-3-(5-(5-(difluoromethoxy)pyridin-2-yl)-4-(2-fluorophenyl)-4H-1,2,4-triazol-3-yl)cyclobutyl)-7-fluoroquinoxaline-5-carboxamide] | 2.4 nM | – | – | 0.508 nM
O=C(N[C@H]1C[C@H](c2nnc(-c3ccccc3)n2-c2ccccc2F)C1)c1ccc2cnccc2n1 [Example 178, N-((1S,3r)-3-(4-(2-fluorophenyl)-5-phenyl-4H-1,2,4-triazol-3-yl)cyclobutyl)-1,6-naphthyridine-2-carboxamide] | 21 nM | 165 nM | – | –
CCOc1ccc(-c2nnc([C@H]3C[C@H](NC(=O)c4cccc5cccnc45)C3)n2-c2ccc(C)s2)nc1 [Example 83, N-((1r,3r)-3-(5-(5-ethoxypyridin-2-yl)-4-(5-methylthiophen-2-yl)-4H-1,2,4-triazol-3-yl)cyclobutyl)quinoline-8-carboxamide] | 2.4 nM | – | – | 1 nM
O=C(N[C@H]1C[C@H](c2nnc(-c3nccs3)n2-c2ccccc2)C1)c1ccc(F)cc1 [Example 35, 4-fluoro-N-((1r,3r)-3-(4-phenyl-5-(thiazol-2-yl)-4H-1,2,4-triazol-3-yl)cyclobutyl)benzamide] | 120 nM | 580 nM | – | –
O=C(N[C@H]1C[C@H](c2nnc(-c3ccncn3)n2-c2ccccc2Cl)C1)c1cccc2cccnc12 [Example 4, N-((1S,3r)-3-(4-(2-chlorophenyl)-5-(pyrimidin-4-yl)-4H-1,2,4-triazol-3-yl)cyclobutyl)quinoline-8-carboxamide] | 5.4 nM | 1 nM | – | –
O=C(N[C@H]1C[C@H](c2nnc(-c3nccs3)n2-c2ccccn2)C1)c1ccnc2cccnc12 [Example 37, N-((1r,3r)-3-(4-(pyridin-2-yl)-5-(thiazol-2-yl)-4H-1,2,4-triazol-3-yl)cyclobutyl)-1,5-naphthyridine-4-carboxamide] | 25 nM | 88 nM | – | –
O=C(N[C@H]1C[C@H](c2nnc(-c3nccs3)n2-c2ccccc2Cl)C1)c1ccnc2cccnc12 [Example 41, N-((1S,3r)-3-(4-(2-chlorophenyl)-5-(thiazol-2-yl)-4H-1,2,4-triazol-3-yl)cyclobutyl)-1,5-naphthyridine-4-carboxamide] | 2 nM | 0.65 nM | – | –
N#Cc1cccc(C(=O)N[C@H]2C[C@H](c3nnc(-c4ccncn4)n3-c3ccccc3Cl)C2)c1 [Example 132, N-((1R,3r)-3-(4-(2-chlorophenyl)-5-(pyrimidin-4-yl)-4H-1,2,4-triazol-3-yl)cyclobutyl)-3-cyanobenzamide] | 6.6 nM | 39 nM | – | –
CCOc1ccc(-c2nnc([C@H]3C[C@H](NC(=O)c4ccn(C)n4)C3)n2-c2ccccc2F)nc1 [Example 120, N-((1S,3r)-3-(5-(5-ethoxypyridin-2-yl)-4-(2-fluorophenyl)-4H-1,2,4-triazol-3-yl)cyclobutyl)-1-methyl-1H-pyrazole-3-carboxamide] | 18 nM | 65 nM | – | –
CCOc1ccc(-c2nnc([C@H]3C[C@H](NC(=O)c4cc5ncccc5[nH]4)C3)n2-c2ccccc2F)nc1 [Example 148, N-((1S,3r)-3-(5-(5-ethoxypyridin-2-yl)-4-(2-fluorophenyl)-4H-1,2,4-triazol-3-yl)cyclobutyl)-1H-pyrrolo[3,2-b]pyridine-2-carboxamide] | 5 nM | 8 nM | – | –
CCOc1ccc(-c2nnc([C@H]3C[C@H](NC(=O)c4ccccn4)C3)n2-c2ccc(C)s2)nc1 [Example 81, N-((1r,3r)-3-(5-(5-ethoxypyridin-2-yl)-4-(5-methylthiophen-2-yl)-4H-1,2,4-triazol-3-yl)cyclobutyl)picolinamide] | 4.6 nM | – | – | 37 nM
CCOc1ccc(-c2nnc([C@H]3C[C@H](NC(=O)c4cc5ccncc5[nH]4)C3)n2-c2ccccc2F)nc1 [Example 126, N-((1S,3r)-3-(5-(5-ethoxypyridin-2-yl)-4-(2-fluorophenyl)-4H-1,2,4-triazol-3-yl)cyclobutyl)-1H-pyrrolo[2,3-c]pyridine-2-carboxamide] | 4.1 nM | 27 nM | – | –
O=C(N[C@H]1C[C@H](c2nnc(-c3nccs3)n2-c2ccccn2)C1)c1cccc2cccnc12 [Example 38, N-((1r,3r)-3-(4-(pyridin-2-yl)-5-(thiazol-2-yl)-4H-1,2,4-triazol-3-yl)cyclobutyl)quinoline-8-carboxamide] | 45 nM | 46 nM | – | –
CCOc1ccc(-c2nnc(C34CC(NC(=O)c5ccnc6cccnc56)(C3)C4)n2-c2ccccc2F)nc1 [Example 62, N-(3-(5-(5-ethoxypyridin-2-yl)-4-(2-fluorophenyl)-4H-1,2,4-triazol-3-yl)bicyclo[1.1.1]pentan-1-yl)-1,5-naphthyridine-4-carboxamide] | 1.3 nM | 2.1 nM | – | –
CCOc1ccc(-c2nnc([C@H]3C[C@H](NC(=O)c4ccnc5cc(F)cnc45)C3)n2-c2cccnc2)nc1 [Example 164, N-((1r,3r)-3-(5-(5-ethoxypyridin-2-yl)-4-(pyridin-3-yl)-4H-1,2,4-triazol-3-yl)cyclobutyl)-7-fluoro-1,5-naphthyridine-4-carboxamide] | 5.8 nM | – | – | 9 nM
O=C(N[C@H]1C[C@H](c2nnc(-c3ccc(OC(F)F)cn3)n2-c2ccccc2F)C1)c1cccc2nccnc12 [Example 185, N-((1S,3r)-3-(5-(5-(difluoromethoxy)pyridin-2-yl)-4-(2-fluorophenyl)-4H-1,2,4-triazol-3-yl)cyclobutyl)quinoxaline-5-carboxamide] | 1.9 nM | – | – | 1.2 nM
O=C(N[C@H]1C[C@H](c2nnc(-c3nccs3)n2-c2ccccc2F)C1)c1ccccc1 [Example 27, N-((1S,3r)-3-(4-(2-fluorophenyl)-5-(thiazol-2-yl)-4H-1,2,4-triazol-3-yl)cyclobutyl)benzamide] | 250 nM | 470 nM | – | –
O=C(N[C@H]1C[C@H](c2nnc(-c3ccccn3)n2-c2ccccc2F)C1)c1ccnc2cc(F)cnc12 [Example 191, 7-fluoro-N-((1S,3r)-3-(4-(2-fluorophenyl)-5-(pyridin-2-yl)-4H-1,2,4-triazol-3-yl)cyclobutyl)-1,5-naphthyridine-4-carboxamide] | 1.8 nM | – | 3.4 nM | –
O=C(N[C@H]1C[C@H](c2nnc(-c3nccs3)n2-c2ccccc2)C1)c1ccccn1 [Example 32, N-((1r,3r)-3-(4-phenyl-5-(thiazol-2-yl)-4H-1,2,4-triazol-3-yl)cyclobutyl)picolinamide] | 49 nM | 229 nM | – | –
CCOc1ccc(-c2nnc(C34CC(NC(=O)c5ccnc6cccnc56)(C3)C4)n2-c2ccncc2)nc1 [Example 172, N-(3-(5-(5-ethoxypyridin-2-yl)-4-(pyridin-4-yl)-4H-1,2,4-triazol-3-yl)bicyclo[1.1.1]pentan-1-yl)-1,5-naphthyridine-4-carboxamide] | 9.4 nM | – | 43 nM | –
Cc1cccc(-c2nnc([C@H]3C[C@H](NC(=O)c4ccc5cnccc5n4)C3)n2-c2ccccc2F)n1 [Example 200, N-((1S,3r)-3-(4-(2-fluorophenyl)-5-(6-methylpyridin-2-yl)-4H-1,2,4-triazol-3-yl)cyclobutyl)-1,6-naphthyridine-2-carboxamide] | 4 nM | 12 nM | – | –
CCOc1ccc(-c2nnc([C@H]3C[C@H](NC(=O)c4cccc5cc[nH]c45)C3)n2-c2ccccc2F)nc1 [Example 115, N-((1S,3r)-3-(5-(5-ethoxypyridin-2-yl)-4-(2-fluorophenyl)-4H-1,2,4-triazol-3-yl)cyclobutyl)-1H-indole-7-carboxamide] | 10 nM | 57 nM | – | –
CCOc1ccc(-c2nnc([C@H]3C[C@H](NC(=O)c4cc(C)nc5ncnn45)C3)n2-c2ccccc2F)nc1 [Example 158, N-((1S,3r)-3-(5-(5-ethoxypyridin-2-yl)-4-(2-fluorophenyl)-4H-1,2,4-triazol-3-yl)cyclobutyl)-5-methy-[1,2,4]triazolo[1,5-a]pyrimidine-7-carboxamide] | 26 nM | 44 nM | – | –
CCOc1ccc(C(=O)N[C@H]2C[C@H](c3nnc(-c4nccs4)n3-c3ccccc3F)C2)nc1 [Example 30, 5-ethoxy-N-((1S,3r)-3-(4-(2-fluorophenyl)-5-(thiazol-2-yl)-4H-1,2,4-triazol-3-yl)cyclobutyl)picolinamide] | 2 nM | 16 nM | – | –
O=C(N[C@H]1C[C@H](c2nnc(-c3nccs3)n2-c2ccccc2Cl)C1)c1ccccc1 [Example 43, N-((1S,3r)-3-(4-(2-chlorophenyl)-5-(thiazol-2-yl)-4H-1,2,4-triazol-3-yl)cyclobutyl)benzamide] | 7.9 nM | 82 nM | – | –
